For orientation: Cmax means the peak of the concentration-time curve.

For data set [1] the following is noted: cited from earlier work.
Data set [2] deals with T1, CYP2C9 (Homo sapiens, UniProt P11712). The conditions noted are these: compared with diclofenac hydroxylase inhibition; S-mephenytoin 25 µM printed as substrate; read-out: IC50 reported by von Moltke et al. (2004); cited from earlier work.
The next data set addresses T2, CYP2C8 (Homo sapiens, UniProt P10632).
T2 sequence (P10632 1-490): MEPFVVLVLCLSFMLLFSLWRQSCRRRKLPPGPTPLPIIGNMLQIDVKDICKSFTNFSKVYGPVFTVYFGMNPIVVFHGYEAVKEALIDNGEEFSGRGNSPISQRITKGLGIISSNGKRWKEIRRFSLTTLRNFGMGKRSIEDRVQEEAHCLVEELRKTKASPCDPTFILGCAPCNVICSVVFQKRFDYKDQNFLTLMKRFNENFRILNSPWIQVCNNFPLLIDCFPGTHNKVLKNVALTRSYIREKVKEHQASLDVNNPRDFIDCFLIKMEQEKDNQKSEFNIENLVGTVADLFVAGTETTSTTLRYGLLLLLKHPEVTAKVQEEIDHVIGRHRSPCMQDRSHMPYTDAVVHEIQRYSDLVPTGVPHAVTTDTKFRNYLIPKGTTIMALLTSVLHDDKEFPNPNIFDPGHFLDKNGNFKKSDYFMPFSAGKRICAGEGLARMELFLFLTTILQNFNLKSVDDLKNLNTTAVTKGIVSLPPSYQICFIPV
The following applies: read-out: IC50, CYP2C8, known inhibitor; cited from earlier work.

Data set [3] has as its target T1, CYP2C9. The data set is described as follows: Time-dependent inhibition (IC50 shift) of CYP2C9, diclofenac, human liver microsomes. In kind it is in vitro ADME. Also noted: incubation mixtures containing pooled human liver microsomes (HLMs, XTreme 200, XenoTech); tissue XenoTech XTreme 200; host or cells: pooled human liver microsomes. The method, then: The time-dependent inhibition of selamariscina A against CYP2C8 and CYP2C9 enzymes was evaluated using an IC50 shift method. Selamariscina A was pre-incubated at six concentrations (0, 0.002, 0.005, 0.02, 0.05, and 0.2 μM) with HLMs in the presence of an NDAPH generation system for 30 min at 37 °C. The reaction was initiated by adding 1 μM amodiaquine or 10 μM diclofenac and further incubated for 10 min. Incubation was terminated by adding 50 μL of ice-cold acetonitrile containing 7 nM trimipramine. After centrifugation, aliquots of supernatants were analyzed by LC–MS/MS.
All metabolites and the IS were separated on a Kinetex XB-C18 column (100 × 2.10 mm, 2.6 μm, 100 Å; Phenomenex, Torrance, CA, USA) and analyzed using a Shimadzu LCMS 8060 triple-quadrupole mass spectrometer coupled with a Nexera X2 ultra high-performance liquid chromatography system (Shimadzu, Kyoto, Japan) equipped with an electrospray ionization interface. The mobile phase consisted of 0.1% formic acid in water (A) and 0.1% formic acid in acetonitrile (B). The elution condition was set as 8% B (0–0.5 min), 8%→60% B (0.5–5 min), 60% B (5–6 min), 60%→8% B (6–6.1 min) and 8% B (6.1–9 min) for the analysis of metabolites of P450 probe substrates and set as 0%→40% B (0–1 min), 40%→50% B (1–5 min), 50%→0% B (5–5.1 min), and 0% B (5.1–8 min) for the analysis of metabolites of UGT probe substrates. The flow rate was 0.2 mL/min. Electrospray ionization was performed in positive-ion mode at 4000 V or in negative-ion mode at −3500 V. The optimum operating conditions were determined as follows: vaporizer temperature, 300 °C; capillary temperature, 350 °C; collision gas (argon) pressure, 1.5 mTorr. Quantitation was conducted in selected reaction monitoring (SRM) modes with the precursor-to-product ion transition for each metabolite (Table 1 and Table 2).
We analyzed the data with Shimadzu LabSolution LC–MS software. The IC50 values were calculated by WinNonlin software (Pharsight, Mountain View, CA, USA). […]
In general terms: Microsomes from liver hold many membrane-bound enzymes, among them those of drug oxidation.

For another data set, the target named is T3, UGT1A4 (Homo sapiens, UniProt P22310).
T3 construct: tissue XenoTech XTreme 200; host or cells: pooled human liver microsomes
In words: Inhibition of UGT1A4 (trifluoperazine glucuronidation) in human liver microsomes. The class given is in vitro ADME. The conditions noted are these: substrate trifluoperazine; HLMs; average ± standard error. The method, then:
(§1) The ability of selamariscina A to inhibit the metabolism of six UGT enzyme probe substrates was evaluated using previously developed methods with minor modifications. The microsomal incubation was performed by dividing the non-interactive substrate cocktail sets (set A included SN-38 for UGT1A1, CDCA for UGT1A3 and TFP for UGT1A4 while set B included N-SER for UGT1A6, MPA for UGT1A9 and NX for UGT2B7) (Table 2). In brief, HLMs (0.25 mg/mL) were activated by incubation in the presence of alamethicin (25 µg/mL) for 15 min on ice. After the addition of UGT probe substrates and inhibitor (0, 0.5, 2, 5, 20 and 50 μM), the incubation mixtures were pre-incubated at 37 °C for 5 min. […] After centrifugation at 18,000 g (5 min, 4 °C), aliquots of supernatants were analyzed by LC–MS/MS. […]
(§2) All metabolites and the IS were separated on a Kinetex XB-C18 column (100 × 2.10 mm, 2.6 μm, 100 Å; Phenomenex, Torrance, CA, USA) and analyzed using a Shimadzu LCMS 8060 triple-quadrupole mass spectrometer coupled with a Nexera X2 ultra high-performance liquid chromatography system (Shimadzu, Kyoto, Japan) equipped with an electrospray ionization interface. […] Quantitation was conducted in selected reaction monitoring (SRM) modes with the precursor-to-product ion transition for each metabolite (Table 1 and Table 2).
(§3) We analyzed the data with Shimadzu LabSolution LC–MS software. […]

The target of the next data set is T4, UGT1A6 (Homo sapiens, UniProt P19224).
T4 construct: tissue XenoTech XTreme 200; host or cells: pooled human liver microsomes
In words: Inhibition of UGT1A6 (N-acetylserotonin glucuronidation) in human liver microsomes. The class given is in vitro ADME. The conditions noted are these: substrate N-acetylserotonin; HLMs; average ± standard error. The method, then:
as §1, §2, §3

A further data set deals with T5, UGT1A3 (Homo sapiens, UniProt P35503).
T5 construct: tissue XenoTech XTreme 200; host or cells: pooled human liver microsomes
The data set is described as follows: Inhibition of UGT1A3 (chenodeoxycholic acid glucuronidation) in human liver microsomes. The conditions noted are these: substrate chenodeoxycholic acid; HLMs. The class given is in vitro ADME. The protocol:
as §1, §2, §3

Molecules are shown by their SMILES. Like-named read-outs stand apart in the source and are kept apart here.

T5 sequence (P35503 29-534): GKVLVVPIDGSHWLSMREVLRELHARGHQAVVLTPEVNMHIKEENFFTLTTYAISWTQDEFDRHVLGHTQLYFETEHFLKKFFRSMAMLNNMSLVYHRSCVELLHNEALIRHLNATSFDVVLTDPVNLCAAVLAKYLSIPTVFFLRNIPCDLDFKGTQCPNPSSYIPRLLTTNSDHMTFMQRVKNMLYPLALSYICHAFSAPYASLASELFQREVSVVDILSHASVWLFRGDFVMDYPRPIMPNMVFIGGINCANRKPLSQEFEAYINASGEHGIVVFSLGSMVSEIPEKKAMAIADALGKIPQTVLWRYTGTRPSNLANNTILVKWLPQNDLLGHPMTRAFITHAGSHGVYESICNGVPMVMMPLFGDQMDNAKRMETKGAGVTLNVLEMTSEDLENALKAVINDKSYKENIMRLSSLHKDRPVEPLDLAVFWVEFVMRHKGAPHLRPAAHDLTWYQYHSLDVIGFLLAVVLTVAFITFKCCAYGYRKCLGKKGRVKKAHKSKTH
T1 sequence (P11712 whole entry): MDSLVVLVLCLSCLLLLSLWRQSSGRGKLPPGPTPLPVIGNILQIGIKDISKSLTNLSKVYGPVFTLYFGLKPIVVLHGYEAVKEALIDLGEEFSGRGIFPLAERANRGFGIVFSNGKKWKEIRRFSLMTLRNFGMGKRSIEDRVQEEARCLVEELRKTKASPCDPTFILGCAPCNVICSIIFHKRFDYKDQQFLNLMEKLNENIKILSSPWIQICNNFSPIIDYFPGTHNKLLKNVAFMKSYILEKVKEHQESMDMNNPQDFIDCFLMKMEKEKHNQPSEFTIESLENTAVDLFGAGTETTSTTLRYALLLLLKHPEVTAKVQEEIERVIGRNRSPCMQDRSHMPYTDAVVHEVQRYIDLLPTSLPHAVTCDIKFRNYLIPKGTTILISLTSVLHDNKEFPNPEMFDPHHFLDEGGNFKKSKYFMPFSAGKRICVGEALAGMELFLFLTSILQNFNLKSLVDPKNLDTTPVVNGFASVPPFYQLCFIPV
T3 sequence (P22310 29-534): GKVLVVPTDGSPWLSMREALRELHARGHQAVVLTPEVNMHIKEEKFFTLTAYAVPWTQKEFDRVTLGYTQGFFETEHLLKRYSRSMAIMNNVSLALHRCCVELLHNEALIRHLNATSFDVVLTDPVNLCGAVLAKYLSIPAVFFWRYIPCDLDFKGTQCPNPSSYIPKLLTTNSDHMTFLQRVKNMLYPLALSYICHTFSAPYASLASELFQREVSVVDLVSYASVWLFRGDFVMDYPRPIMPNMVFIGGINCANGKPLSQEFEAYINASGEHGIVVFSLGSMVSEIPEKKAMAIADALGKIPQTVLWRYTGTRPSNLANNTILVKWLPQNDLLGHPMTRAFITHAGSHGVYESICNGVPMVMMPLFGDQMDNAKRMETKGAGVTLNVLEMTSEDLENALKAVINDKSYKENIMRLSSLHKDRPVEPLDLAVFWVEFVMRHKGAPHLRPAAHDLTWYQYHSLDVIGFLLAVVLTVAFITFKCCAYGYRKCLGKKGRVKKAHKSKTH
T4 sequence (P19224 27-532): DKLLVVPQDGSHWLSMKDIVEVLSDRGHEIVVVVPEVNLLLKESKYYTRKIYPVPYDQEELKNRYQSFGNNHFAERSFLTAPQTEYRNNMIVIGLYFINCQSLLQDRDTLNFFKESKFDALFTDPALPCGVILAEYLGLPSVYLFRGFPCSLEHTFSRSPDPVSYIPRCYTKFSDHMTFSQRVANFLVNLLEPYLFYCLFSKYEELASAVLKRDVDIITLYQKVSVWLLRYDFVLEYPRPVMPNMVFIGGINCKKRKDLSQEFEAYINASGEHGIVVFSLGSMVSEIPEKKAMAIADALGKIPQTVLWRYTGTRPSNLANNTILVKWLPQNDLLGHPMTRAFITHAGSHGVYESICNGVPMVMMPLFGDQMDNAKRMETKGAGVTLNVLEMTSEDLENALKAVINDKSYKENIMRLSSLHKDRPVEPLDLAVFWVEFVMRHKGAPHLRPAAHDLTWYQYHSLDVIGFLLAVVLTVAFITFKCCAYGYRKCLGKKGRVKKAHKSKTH

Consider `O=c1cc(-c2ccc(O)c(-c3c(O)cc(O)c4c(=O)cc(-c5ccc(O)cc5)oc34)c2)oc2cc(O)cc(O)c12` [amentoflavone], for which the highest concentration (Cmax) in data set [1] (liposome-based Selaginella doderleinii Hieron extracts 200 mg/kg, read-out: Cmax after liposome-based extract) was 220 nM. For the same molecule, the “Cmax, times higher than control” value in data set [1] (liposome-based extracts 200 mg/kg versus control) was 5.4 times. The figures for the “Maximum concentration in rat blood” value in data set [1] (single oral dose of Selaginella doderleinii Hieron extracts 200 mg/kg) and in data set [1] (single oral dose of Selaginella doderleinii Hieron extracts 600 mg/kg) were 0.041 µM and 0.063 µM, respectively. On CYP2C9 [2], the IC50 was 35 nM.

For the molecule `CC(C)(O)c1ccccc1CC[C@@H](SCC1(CC(=O)O)CC1)c1cccc(/C=C/c2ccc3ccc(Cl)cc3n2)c1` [montelukast, reference compound], the IC50 at CYP2C8 is 20 nM.

In the case of `O=C1CC(c2cc(-c3c(O)ccc4c(=O)cc(-c5ccc(O)cc5)oc34)c(O)cc2O)Oc2cc(O)cc(O)c21` (stereo not drawn) [selamariscina A], the IC50 was 92 nM on CYP2C9 [3] (30 min pre-incubation at 37 °C with NADPH generation system, read-out: IC50, CYP2C9 diclofenac, HLMs pre-incubated with NADPH generation system); 7700 ± 1900 nM at UGT1A4; 46100 ± 11700 nM at UGT1A6; greater than 50000 nM on UGT1A3. In addition, the “Time-dependent inhibition of CYP2C9” value on CYP2C9 [3] (IC50 shift method) was “not a time-dependent inhibitor”. Moreover, the IC50 at 10 min at CYP2C9 [3] (human, human liver microsomes, probe diclofenac (10 μM), no NADPH pre-incubation, read-out: IC50, CYP2C9 diclofenac, untreated HLMs) was 54 nM.

Values taken from PMC7238120, “Strong and Selective Inhibitory Effects of the Biflavonoid Selamariscina A against CYP2C8 and CYP2C9 Enzyme Activities in Human Liver Microsomes” (Pharmaceutics, 2020).
